Reference: patent US9930892B2, “Molecules having pesticidal utility, and intermediates, compositions, and processes, related thereto” (Dow AgroSciences LLC, priority 2016, dated 2018)

What was measured:
[1] = tested on: Beet Armyworm (Spodoptera exigua); test: Bioassay on Beet Armyworm (BAW), 128-well diet tray assay; type: in vivo; settings: for BAW % Control (or Mortality) rating: 50 μg/cm^2 on artificial diet, second instar larvae, five to seven days, 25° C.; for mortality at 0.05 µg/cm2 / mortality at 0.5 µg/cm2 / mortality at 5 µg/cm2: Spodoptera exigua, read-out: BAW Percent control (or mortality); for mortality at 0.05 µg/cm2: 0.05 μg/cm^2; for mortality at 0.5 µg/cm2: 0.5 μg/cm^2; for mortality at 5 µg/cm2: 5 μg/cm^2
Experimental: Bioassays on BAW were conducted using a 128-well diet tray assay. One to five second instar BAW larvae were placed in each well (3 mL) of the diet tray that had been previously filled with 1 mL of artificial diet to which 50 μg/cm^2 of the test molecule (dissolved in 50 μL of 90:10 acetone-water mixture) had been applied (to each of eight wells) and then allowed to dry. Trays were covered with a clear self-adhesive cover and held at 25° C., 14:10 light-dark for five to seven days. Percent mortality was recorded for the larvae in each well; activity in the eight wells was then averaged. The results are indicated in the table entitled “Table ABC: Biological Results” (See Table Section).
(§1) Bioassays on BAW and CL were conducted according to the procedures outlined in Example A: Bioassays on Beet Armyworm (“BAW”) and Cabbage Looper (“CL”) using the indicated concentrations.

[2] = tested on: Cabbage Looper (Trichoplusia ni); test: Bioassay on Cabbage Looper (CL), 128-well diet tray assay; type: in vivo; settings: for CL % Control (or Mortality) rating: 50 μg/cm^2 on artificial diet, second instar larvae, five to seven days, 25° C.; for mortality at 0.05 µg/cm2 / mortality at 0.5 µg/cm2 / mortality at 5 µg/cm2: Trichoplusia ni, read-out: CL Percent control (or mortality); for mortality at 0.05 µg/cm2: 0.05 μg/cm^2; for mortality at 0.5 µg/cm2: 0.5 μg/cm^2; for mortality at 5 µg/cm2: 5 μg/cm^2
Experimental: Bioassays on CL were conducted using a 128-well diet tray assay. One to five second instar CL larvae were placed in each well (3 mL) of the diet tray that had been previously filled with 1 mL of artificial diet to which 50 μg/cm^2 of the test molecule (dissolved in 50 μL of 90:10 acetone-water mixture) had been applied (to each of eight wells) and then allowed to dry. Trays were covered with a clear self-adhesive cover and held at 25° C., 14:10 light-dark for five to seven days. Percent mortality was recorded for the larvae in each well; activity in the eight wells was then averaged. The results are indicated in the table entitled “Table ABC: Biological Results” (See Table Section).
as §1

| Structure (SMILES) | BAW % Control (or Mortality) rating [1] | CL % Control (or Mortality) rating [2] | other results |
| --- | --- | --- | --- |
| CN(NC(=O)c1ccc(/C(F)=C/C(c2cc(Cl)c(Cl)c(Cl)c2)C(F)(F)F)cc1C(F)(F)F)C(=O)NCC(F)(F)F (stereo not shown) [F1, (Z)-1-methyl-2-(4-(1,4,4,4-tetrafluoro-3-(3,4,5-trichlorophenyl)but-1-en-1-yl)-2-(trifluoromethyl)benzoyl)-N-(2,2,2-trifluoroethyl)hydrazinecarboxamide] | A (50-100) | A (50-100) | mortality at 0.05 µg/cm2 [1]: 100%; mortality at 0.5 µg/cm2 [1]: 100%; mortality at 5 µg/cm2 [1]: 100%; mortality at 0.05 µg/cm2 [2]: 100%; mortality at 0.5 µg/cm2 [2]: 100%; mortality at 5 µg/cm2 [2]: 100% |
| O=C(NCC(F)(F)F)NNC(=O)c1ccc(/C(F)=C/C(c2cc(Cl)c(Cl)c(Cl)c2)C(F)(F)F)cc1Br (stereo not shown) [F2, (Z)-2-(2-bromo-4-(1,4,4,4-tetrafluoro-3-(3,4,5-trichlorophenyl)but-1-en-1-yl)benzoyl)-N-(2,2,2-trifluoroethyl)hydrazinecarboxamide] | A (50-100) | A (50-100) | – |
| O=C(NCC(F)(F)F)NNC(=O)c1ccc(/C(F)=C/C(c2cc(Cl)c(Cl)c(Cl)c2)C(F)(F)F)cc1C(F)(F)F (stereo not shown) [F3, (Z)-2-(4-(1,4,4,4-Tetrafluoro-3-(3,4,5-trichlorophenyl)but-1-en-1-yl)-2-(trifluoromethyl)benzoyl)-N-(2,2,2-trifluoroethyl)hydrazinecarboxamide] | A (50-100) | A (50-100) | – |
| O=C(CCC(F)(F)F)NNC(=O)c1ccc(/C(F)=C/C(c2cc(Cl)c(Cl)c(Cl)c2)C(F)(F)F)cc1C(F)(F)F (stereo not shown) [F4, (Z)-4-(1,4,4,4-Tetrafluoro-3-(3,4,5-trichlorophenyl)but-1-en-1-yl)-N′-(4,4,4-trifluorobutanoyl)-2-(trifluoromethyl)benzohydrazide] | A (50-100) | A (50-100) | – |
| CN(NC(=O)c1ccc(/C(F)=C/C(c2cc(Cl)c(Cl)c(Cl)c2)C(F)(F)F)cc1C(F)(F)F)C(=O)CCC(F)(F)F (stereo not shown) [F11, (Z)—N′-Methyl-4-(1,4,4,4-tetrafluoro-3-(3,4,5-trichlorophenyl)but-1-en-1-yl)-N′-(4,4,4-trifluorobutanoyl)-2-(trifluoromethyl)benzohydrazide] | A (50-100) | A (50-100) | – |
| CC(F)(F)C(/C=C(\F)c1ccc(C(=O)NNC(=O)NCC(F)(F)F)c(C(F)(F)F)c1)c1cc(Cl)c(Cl)c(Cl)c1 (stereo not shown) [F12, (Z)-2-(4-(1,4,4-Trifluoro-3-(3,4,5-trichlorophenyl)pent-1-en-1-yl)-2-(trifluoromethyl)benzoyl)-N-(2,2,2-trifluoroethyl)hydrazinecarboxamide] | A (50-100) | A (50-100) | – |
| CN(NC(=O)CCC(F)(F)F)C(=O)c1ccc(/C(F)=C/C(c2cc(Cl)c(Cl)c(Cl)c2)C(F)(F)F)cc1C(F)(F)F (stereo not shown) [F13, (Z)—N-methyl-4-(1,4,4,4-tetrafluoro-3-(3,4,5-trichlorophenyl)but-1-en-1-yl)-N′-(4,4,4-trifluorobutanoyl)-2-(trifluoromethyl)benzohydrazide] | A (50-100) | A (50-100) | – |
| C=Cc1c(Cl)cc(C(/C=C(\F)c2ccc(C(=O)NN(C)C(=O)NCC(F)(F)F)c(C(F)(F)F)c2)C(F)(F)F)cc1Cl (stereo not shown) [F17, (Z)-2-(4-(3-(3,5-Dichloro-4-vinylphenyl)-1,4,4,4-tetrafluorobut-1-en-1-yl)-2-(trifluoromethyl)benzoyl)-1-methyl-N-(2,2,2-trifluoroethyl)hydrazinecarboxamide] | A (50-100) | A (50-100) | – |
| CN(NC(=O)c1ccc(/C(F)=C/C(c2cc(Br)c(Cl)c(Br)c2)C(F)(F)F)cc1C(F)(F)F)C(=O)NCC(F)(F)F (stereo not shown) [F18, (Z)-2-(4-(3-(3,5-Dibromo-4-chlorophenyl)-1,4,4,4-tetrafluorobut-1-en-1-yl)-2-(trifluoromethyl)benzoyl)-1-methyl-N-(2,2,2-trifluoroethyl)hydrazinecarboxamide] | A (50-100) | A (50-100) | – |
| CN(NC(=O)c1ccc(/C(F)=C/C(c2cc(Cl)c(Cl)c(Cl)c2)C(F)(F)F)cc1C(F)(F)F)S(=O)(=O)CCC(F)(F)F (stereo not shown) [F19, (Z)-3,3,3-trifluoro-N-methyl-N′-(4-(1,4,4,4-tetrafluoro-3-(3,4,5-trichlorophenyl)but-1-en-1-yl)-2-(trifluoromethyl)benzoyl)propane-1-sulfonohydrazide] | A (50-100) | A (50-100) | – |
| O=C(CCC(F)(F)F)NNC(=O)c1ccc(/C(F)=C/C(c2cc(Cl)c(Cl)c(Cl)c2)C(F)(F)F)cc1Cl (stereo not shown) [F20, (Z)-2-Chloro-4-(1,4,4,4-tetrafluoro-3-(3,4,5-trichlorophenyl)but-1-en-1-yl)-N′-(4,4,4-trifluorobutanoyl)benzohydrazide] | A (50-100) | A (50-100) | – |
| O=C(CCC(F)(F)F)NNC(=O)c1ccc(/C(F)=C/C(c2cc(Cl)c(Cl)c(Cl)c2)C(F)(F)F)cc1I (stereo not shown) [F21, (Z)-2-Iodo-4-(1,4,4,4-tetrafluoro-3-(3,4,5-trichlorophenyl)but-1-en-1-yl)-N′-(4,4,4-trifluorobutanoyl)benzohydrazide] | A (50-100) | A (50-100) | – |
| CN(NC(=O)c1ccc(/C(F)=C/C(c2cc(Cl)c(Br)c(Cl)c2)C(F)(F)F)cc1C(F)(F)F)C(=O)NCC(F)(F)F (stereo not shown) [F23, (Z)-2-(4-(3-(4-Bromo-3,5-dichlorophenyl)-1,4,4,4-tetratfluorobut-1-en-1-yl)-2-(trifluoromethyl)benzoyl)-1-methyl-N-(2,2,2-trifluoroethyl)hydrazinecarboxamide] | A (50-100) | A (50-100) | – |
| O=C(NNS(=O)(=O)CCC(F)(F)F)c1ccc(/C(F)=C/C(c2cc(Cl)c(Cl)c(Cl)c2)C(F)(F)F)cc1C(F)(F)F (stereo not shown) [F24, (Z)-3,3,3-Trifluoro-N′-(4-(1,4,4,4-tetrafluoro-3-(3,4,5-trichlorophenyl)but-1-en-1-yl)-2-(trifluoromethyl)benzoyl)propane-1-sulfonohydrazide] | A (50-100) | A (50-100) | – |
| Cc1cc(/C(F)=C/C(c2cc(Cl)c(Cl)c(Cl)c2)C(F)(F)F)ccc1C(=O)NN(C)C(=O)NCC(F)(F)F (stereo not shown) [F28, (Z)-1-Methyl-2-(2-methyl-4-(1,4,4,4-tetrafluoro-3-(3,4,5-trichlorophenyl)but-1-en-1-yl)benzoyl)-N-(2,2,2-trifluoroethyl)hydrazinecarboxamide] | – | – | mortality at 0.05 µg/cm2 [1]: 88%; mortality at 0.5 µg/cm2 [1]: 100%; mortality at 5 µg/cm2 [1]: 100%; mortality at 0.05 µg/cm2 [2]: 100%; mortality at 0.5 µg/cm2 [2]: 100%; mortality at 5 µg/cm2 [2]: 100% |
| CC(C)(C)C(=O)NNC(=O)c1ccc(/C(F)=C/C(c2cc(Cl)c(Cl)c(Cl)c2)C(F)(F)F)cc1C(F)(F)F (stereo not shown) [F29, (Z)—N′-Pivaloyl-4-(1,4,4,4-tetrafluoro-3-(3,4,5-trichlorophenyl)but-1-en-1-yl)-2-(trifluoromethyl)benzohydrazide] | A (50-100) | A (50-100) | – |
| CN(NC(=O)c1ccc(/C(F)=C/C(c2cc(Cl)c(Cl)c(Cl)c2)C(F)(F)F)cc1)C(=O)NCC(F)(F)F (stereo not shown) [FC1, (Z)-1-methyl-2-(4-(1,4,4,4-tetrafluoro-3-(3,4,5-trichlorophenyl)but-1-en-1-yl)benzoyl)-N-(2,2,2-trifluoroethyl)hydrazinecarboxamide, reference compound] | – | – | mortality at 0.05 µg/cm2 [1]: 0%; mortality at 0.5 µg/cm2 [1]: 0%; mortality at 5 µg/cm2 [1]: 25%; mortality at 0.05 µg/cm2 [2]: 0%; mortality at 0.5 µg/cm2 [2]: 0%; mortality at 5 µg/cm2 [2]: 7% |
| CN(NC(=O)c1ccc(/C(F)=C/C(c2cc(Cl)c(Cl)c(Cl)c2)C(F)(F)F)c2ccccc12)C(=O)NCC(F)(F)F (stereo not shown) [PF1, (Z)-1-Methyl-2-(4-(1,4,4,4-tetrafluoro-3-(3,4,5-trichlorophenyl)but-1-en-1-yl)-1-naphthoyl)-N-(2,2,2-trifluoroethyl)hydrazine-1-carboxamide] | A (50-100) | A (50-100) | – |
| CN(NC(=O)c1ccc(/C(F)=C/C(c2cc(Cl)cc(C(F)(F)F)c2)C(F)(F)F)cc1C(F)(F)F)C(=O)NCC(F)(F)F (stereo not shown) [PF9, (Z)-2-(4-(3-(3-Chloro-5-(trifluoromethyl)phenyl)-1,4,4,4-tetrafluorobut-1-en-1-yl)-2-(trifluoromethyl)benzoyl)-1-methyl-N-(2,2,2-trifluoroethyl)hydrazine-1-carboxamide] | A (50-100) | A (50-100) | – |
